One compound from paper PMC6234764, “First Insights Into Within Host Translocation of the Bacillus cereus Toxin Cereulide Using a Porcine Model” (Frontiers in Microbiology, 2018) can be followed below.

One series deals with Large White piglets. Nature of the series: Clinical signs after oral administration of cereulide. The class given is in vivo, pig. The method, then: In each experiment five Large White piglets, weighing 10–15 kg, were used. All piglets were derived from one single farm in Austria. The animals were placed in metabolic cages 3 days before start of the experiment for acclimatization. Water ad libitum and feed (Ferkelkorn, Garant Tiernahrung, Pöchlarn, Austria) were available before and during the whole experiment.
A total of four experiments, each including four treated animals and one control pig, was performed to investigate the action of cereulide on piglets after oral intake of cereulide. Pigs were either challenged orally with a single dose (acute trials) or with daily over a period of 7 days (chronic trial) (see Table 1). One hour before cereulide toxin administration blood samples were taken by puncturing the anterior Vena cava and piglets were weighed for calculation of the cereulide concentration (t = 0 h). In the intoxication experiment with 150 μg kg^-1 blood samples were taken 68 h before the experiment to reduce the distress for the animals at the start day of the experiments. Blood-chemical, immunological, and histological analyses of selected organs as well as quantification of cereulide in organs, tissues, urine and feces were carried out as detailed below.
On body weight calculated amounts of cereulide, dissolved in ethanol, were mixed with milk (UHT milk; 3.5% fat), and fed to four piglets. Control piglets were fed with milk supplemented with similar ethanol concentrations as the experimental piglets. The experiment started after the uptake of the whole milk cereulide mixture. The milk was checked for bacterial contamination prior to the experiment.
After oral administration of cereulide, piglets were monitored for unusual behavior and examined physically with special respect on rectal body temperature as well as pulse and respiration rate, every 2–3 h. Blood samples were taken from the Vena cava cranialis. Urine and feces were collected during the whole experiment and stored at -80°C. After the experiment pigs were anaesthetized by intramuscular injection of a bolus of ketamine (10 mg kg^-1) and azaperone (1.3 mg kg^-1). When sedation was deep enough cerebrospinal fluid (liquor) was taken by lumbar puncture. Finally, pigs were euthanized by intracardial injection of T61®. Animals were then necropsied and parts of the following organs, tissues or body fluids were taken for SIDA-MS analysis: liver, lung, heart, kidney, brain, spleen, small and large intestine, lymph nodes, gastric as well as intestinal contents, skeletal muscle, and abdominal and subcutaneous fat. Samples of liver, lung, heart, kidney, brain, spleen, small, and large intestine were collected for histological analysis.

In series [1] the test system is Peripheral blood mononuclear cells (PBMC). The series can be described thus: Flow cytometric analysis of PBMC populations. The format is in vivo, pig. The method, then:
Peripheral blood mononuclear cells (PBMC) were isolated from heparin-stabilized blood samples (5–8 mL) using Ficoll-Hypaque (PAA, Austria) density centrifugation as described elsewhere ([Saalmüller et al., 1987]). For flow cytometric (FCM) analysis PMBCs were labeled with monoclonal antibodies as indicated in Supplementary Table S1 and stained with the respective isotype-specific conjugates. For analysis of regulatory T cells, cells were fixed and permeabilized by using Foxp3 Staining Buffer Set (eBioscience) in accordance with the manufacturer‘s instructions or for B cells by a FormSap-F&P permeabilization and fixation protocol as described previously ([Gerner et al., 2008]; [Käser et al., 2008]). Samples were analyzed immediately after the final washing steps. Flow cytometric analyses were performed on a FACSCantoII (BD Bioscience). 50,000 events were collected for each sample. Data were analyzed using FACSDiva software 6.1.3 (BD Bioscience) and FlowJo software 7.6.
Neg a tiv e c ontr ol - - - - Isoty p co ntr ol Ig G2b 1 Anti-Ig G2b-Alexa488 2 - - Isoty pe cont rol Isoty p co ntr ol Ig G 1 Anti-Ig G1-RPE 3 […]
T he lp er ce lls Anti-CD4 (74-12-4; IgG2b) 4 Anti-Ig G2b-Alexa488 2 - - NK ce lls Anti-CD3 (PPT3; IgG1) 5 Anti-Ig G1-RPE 3 […]
In general terms: In flow cytometry, cells or beads pass a laser one at a time.

[2] abbreviates: oral doses 10 to 150 μg kg^-1, summary in discussion.

As to `CC(C)C[C@H]1OC(=O)[C@H](C(C)C)NC(=O)[C@H](C(C)C)OC(=O)[C@@H](C)NC(=O)[C@@H](CC(C)C)OC(=O)[C@H](C(C)C)NC(=O)[C@H](C(C)C)OC(=O)[C@@H](C)NC(=O)[C@@H](CC(C)C)OC(=O)[C@H](C(C)C)NC(=O)[C@H](C(C)C)OC(=O)[C@@H](C)NC1=O` [cereulide], the “Pulse and respiration rates, inner body temperature” value in the series with Large White piglets (all animals, except during periods of seizures and convulsions) is “normal pulse and respiration rates as well as inner body temperature”. The Onset of seizures with Large White piglets (daily oral dose 10 μg kg^-1 for 7 days, all four pigs to varying extents) lay within 2 to 4 h. Also, in the series with Large White piglets (daily oral dose 10 μg kg^-1 for 7 days, all piglets), the “Onset of transient depressiveness” value lay in the range of 2 to 6 h. Further, the “Emesis in the pigs” value in the series with Large White piglets (oral doses 10 to 150 μg kg^-1) was “only rarely observed”. Also, in the series on Large White piglets (setting [2]), the “Onset of observed symptoms in the piglets” value lay in the range of 1.5 to 3 h and the “Time after which symptoms ceased” value lay within 7 to 9 h. The “Duration of transient depressive behavior” value in the series with Large White piglets (single oral dose 10 μg kg^-1, all treated piglets) lay in the range of 4.5 to 6 h. The “Time of vomiting after toxin intake” value with Large White piglets (single oral dose 10 μg kg^-1, one animal) worked out at 11 h. Besides, the “Time after which all symptoms disappeared” value in the series with Large White piglets (single oral dose 30 μg kg^-1) was 7 to 9 h. In addition, in the series on Large White piglets (single oral dose 30 μg kg^-1, 2/4 piglets, seizures an additional hour later), the Onset of shivering came out at 1 h. Further, the “Onset of seizures after cereulide intake” value in the series with Large White piglets (single oral dose 30 μg kg^-1, remaining two piglets) lay within 4 to 6 h. In addition, the “Onset of lethargic behavior” value in the series on Large White piglets (single oral dose 150 μg kg^-1, all treated piglets) is 1.5 to 2 h. The “Time to gradual recovery” value in the series on Large White piglets (single oral dose 150 μg kg^-1, three of the four piglets) lay in the range of 6 to 7 h. Besides, in series [1] (after oral administration of cereulide), the “Cell composition of PBMCs in comparison to control pigs” value was “no significant changes”. Besides, the “Proportions of blood cell populations” value in series [1] (daily oral dose 10 μg kg^-1 over 7 days) is recorded as “remained stable”.
